Molecules are shown by their SMILES. “Also recorded” adds a separate entry of the source.

The values below come from US9623021B2, “Nuclear receptor binding agents” (GTX, Inc., priority 2007, dated 2017).

The test system of one data set is ARPE-19 cells. The data set is described as follows: Fluorescent detection of intracellular ROS in ARPE-19 cells (tBH oxidative stress). Conditions: 150 μM tBH, FIG. 20B.
Data set [1] concerns the target ERα ligand binding domain (Homo sapiens (Human), UniProt P03372). Description: Competitive [3H]-estradiol radioligand binding, ERα (Example 21). As to the method: (§1) ER binding affinity was determined via one of the following methods:
(§2) Briefly, the incubation mixture was filtered through a high affinity protein binding filter, and washed several times to remove any unbound radioactivity. The filter plate was air dried and sealed on the bottom.
(§3) Following incubation, plates were harvested onto GF/B filters and radioactivity was measured with a TopCount NXT (PerkinElmer). Nonspecific binding was subtracted from total binding to yield specific binding.

Data set [2] has as its target ERβ ligand binding domain (Homo sapiens (Human), UniProt Q92731). Description: Competitive [3H]-estradiol radioligand binding, ERβ (Example 21). The following applies: ratio between the binding constants of ER-α and ER-β. As to the method: as §1, §2, §3
For data set [3], the system named is THP-1 macrophage cell adhesion to bEND-3 endothelial cells. Description: Macrophage adhesion assay (LPS induced THP-1 adhesion to bEND-3 endothelial cells). The following applies: FIG. 13. In kind it is cell-based. The method, then: To determine the anti-inflammatory effects of ER-β NRBAs in vitro, a macrophage adhesion assay was performed. Macrophages adhere to endothelial cells due to elevated levels of pro-inflammatory cytokines. This principle was used in this assay to determine the effect of one of the ER-β NRBAs on bacterial lipopolysaccharide (LPS) induced THP-1 macrophage cell adhesion to bEND-3 endothelial cells.

Data set [4] addresses T1, ER-α (Rattus norvegicus (Rat), UniProt P06211). The data set is described as follows: Transient transfection and reporter gene assay, ER-α, HEK-293 cells (Example 22A). In kind it is cell-based. The following applies: ERE-LUC. As to the method: Human estrogen receptors (ER-α and ER-β) were cloned from prostate cDNA into a pCR3.1 plasmid vector backbone. PGC-1 was cloned into mammalian two hybrid vector pACT. ER-β H475 was mutated to alanine using site-directed mutagenesis. Sequencing was performed to determine the absence of any non specific mutations. SHP promoter (−572 to +10) (26) was cloned into pGL3 basic LUC reporter vector and human FXR was cloned into pCR3.1. HEK-293 cells were plated at 100,000 cells per well of a 24 well plate in […] (DMEM)+5% charcoal-stripped fetal bovine serum (csFBS). The cells were transfected using Lipofectamine (Invitrogen, Carlsbad, Calif.) with 0.25 μg ERE-LUC, 0.02 μg CMV-LUC (renilla luciferase) and 12.5 ng of rat ER-α or 25 ng rat ER-β. […] Luciferase assays were performed 48 hrs after transfection.
To determine if the selectivity in ER binding also translated into ER-β-selective activity, transient transactivation assays were performed in HEK-293 cells transfected with plasmids encoding ER-α or ER-β and ERE-LUC. The cells were treated with varying concentrations of the ligands and their EC50 values were determined.

Data set [5] relates to high fat diet fed C57BL6 mice. The data set is described as follows: High fat diet induced obesity model, prevention studies (studies 1 and 2).
Procedure: Study A: C57BL6 male mice of 4 weeks of age were divided into different groups and were fed with a normal or high fat diet (Harlan, Ind.).
For the treatment study (study 3), the animals were maintained on the irrespective diets for 6 weeks and then treated daily as indicated for an additional 18 weeks. Biweekly body weights and food consumption were measured. The animals were sacrificed at the end of each study and blood and tissues were collected for RNA isolation, histology and protein estimation.
Cholesterol and leptin concentrations were measured in serum using ELISA-based methods.
Histology was performed on cryosections and stained with oil 0 red.
Oral glucose tolerance tests (OGTT) were performed on 16-h fasted mice. Mice were given 150 mg glucose by oral gavage through a gastric tube.
Six week old C57BL/6 mice were randomized, based on body weight, into three study groups as shown in the Study Parameters Table below.
The mice were treated for 12 weeks. Twice weekly, the body weight and feed consumption were measured.
A glucose tolerance test was also performed at the completion of the study by administering 150 mg glucose orally to the mice and measuring blood glucose levels at 0, 15, 30 and 60 minutes post glucose administration.
At sacrifice, the mice organ weights were measured and collected for histology, gene expression and protein expressions. Blood was collected for serum marker determination (cholesterol, glucose, leptin).
Dual energy X-ray absorptiometry (DEXA) was performed to measure the body composition in Study 1.
An MRI scan was performed at the beginning of the study, after 6 weeks and at the completion of the study.
Data set [6] relates to SHP promoter. Description: SHP promoter-luciferase in HEK-293 cells transfected with FXR and ER-β. In kind it is cell-based. Conditions: FXR and ER-β plasmids, FIG. 12E right panel. As to the method:
FIG. 12 depict the effect of ER-β ligand on PPAR-γ function through ligand binding domain (LBD). (A). HEK-293 cells were transfected with 0.25 μg PPRE-LUC, 5 ng CMV-renilla LUC and the indicated receptors (PPAR-γ and ER-β for the left panel and PPAR-α and ER-β for the right panel). The cells were treated 24 hrs after transfection with the indicated ligands and harvested 48 hrs after transfection and firefly luciferase activity was measured and normalized to renilla luciferase. (B). H475 in ER-β LBD is important for its function. H475 in ER-β LBD was mutated to alanine (A) using a site directed mutagenesis kit. Transactivation assay was performed as described in panel A in HEK-293 cells with a titration of ER-β ligands in wild type or ER-β H475A. (C). […] HEK-293 cells were transfected with 0.25 μg PPRE-LUC, 5 ng CMV-renilla LUC and 50 ng of the indicated receptors (PPAR-γ or PPAR-γ and wild type ER-β or PPAR-γ and ER-β H475A). The cells were treated 24 hrs after transfection with the indicated ligands and harvested 48 hrs after transfection and firefly luciferase activity was measured and normalized to renilla luciferase. (D). […] HepG2 cells were transfected with 0.25 μg PPRE-LUC, 5 ng CMV-renilla LUC, 0.5 μg PGC-1 or vector backbone and 100 ng of the indicated receptors (PPAR-γ or PPAR-γ and wild type ER-β or PPAR-γ and ER-β H475A for top panels and PPAR-α or PPAR-α and ER-β for bottom panel). The cells were treated 24 hrs after transfection with the indicated ligands and harvested 48 hrs after transfection and firefly luciferase activity was measured and normalized to renilla luciferase. (E). SHP-1 is an ER-β specific target gene. HEK-293 cells were transfected with 0.25 μg SHP-LUC, 5 ng CMV-renilla LUC and 50 ng of the indicated receptors (FXR and ER-α for the left panel and FXR and ER-β for the right panel). The cells were treated 24 hrs after transfection with the indicated ligands and harvested 48 hrs after transfection and firefly luciferase activity was measured and normalized to renilla luciferase. […]

A further data set deals with PPAR-γ. The data set is described as follows: PPAR-γ transactivation (PPRE-LUC) in HEK-293 cells co-transfected with ER-β. In kind it is cell-based. Conditions: FIG. 12A left panel. The method, then:
(§4) FIG. 12 depict the effect of ER-β ligand on PPAR-γ function through ligand binding domain (LBD). (A). HEK-293 cells were transfected with 0.25 μg PPRE-LUC, 5 ng CMV-renilla LUC and the indicated receptors (PPAR-γ and ER-β for the left panel and PPAR-α and ER-β for the right panel). The cells were treated 24 hrs after transfection with the indicated ligands and harvested 48 hrs after transfection and firefly luciferase activity was measured and normalized to renilla luciferase. (B). H475 in ER-β LBD is important for its function. H475 in ER-β LBD was mutated to alanine (A) using a site directed mutagenesis kit. Transactivation assay was performed as described in panel A in HEK-293 cells with a titration of ER-β ligands in wild type or ER-β H475A. (C). […] The cells were treated 24 hrs after transfection with the indicated ligands and harvested 48 hrs after transfection and firefly luciferase activity was measured and normalized to renilla luciferase. […] The cells were treated 24 hrs after transfection with the indicated ligands and harvested 48 hrs after transfection and firefly luciferase activity was measured and normalized to renilla luciferase. […] The cells were treated 24 hrs after transfection with the indicated ligands and harvested 48 hrs after transfection and firefly luciferase activity was measured and normalized to renilla luciferase. […]

The test system of data set [7] is Ishikawa endometrial cells. Description: Ishikawa growth assay (alkaline phosphatase). In kind it is cell-based. As to the method: Ishikawa cells were plated at 15,000 cells/well in 24 well plates in DME:F12 (1:1)+5% csFBS w/o phenol red. The cells were maintained in this medium at 37° C. for 3 days. Medium was changed immediately prior to drug treatment for an additional 72 hrs. After 72 hrs, the cells were fixed with formalin and the amount of alkaline phosphatase (ALP) measured by para-nitrophenyl phosphate method.
This effect is one potential concern in the development of ER-α SERMs.

Another data set has as its system PPAR-α. Description: PPAR-α transactivation (PPRE-LUC) in HEK-293 cells co-transfected with ER-β. In kind it is cell-based. Conditions: FIG. 12A right panel. As to the method:
as §4

In data set [8] the target is T1, ER-α. In kind it is cell-based. Conditions: 100 nM NRBA compared to 1 nM estradiol. The method, then:
COS or 293 cells were plated in DME without phenol red+10% cs FBS at 90,000 cells per well in 24 well plates, and were transfected with 0.25 μg of the vector “ERE-LUC”, where a firefly luciferase gene was driven by two estrogen responsive elements and 0.02 μg of the control CMV-LUC, Renilla where a luciferase gene was driven by a CMV promoter. […] All the receptors were cloned from rat tissue into the PCR3.1 vector backbone. Twenty four hours post transfection, cells were treated with compounds of this invention, estrogen, DHT, and other NRBAs or combinations thereof. Cells were harvested 48 hrs after transfection, and assayed for firefly and Renilla luciferase activity.

For data set [9], the system named is SHP promoter. The data set is described as follows: SHP promoter-luciferase in HEK-293 cells transfected with FXR and ER-α. In kind it is cell-based. The following applies: FIG. 12E left panel. As to the method: as §4
[10] abbreviates: Brown Adipose Tissue, vs high fat diet vehicle, >2-fold, p<0.01.
Where [11] appears, read: Liver, vs high fat diet vehicle, >2-fold, p<0.01.
Setting [12] is: White Adipose Tissue, vs high fat diet vehicle, >2-fold, p<0.01.
Setting [13] is: high fat diet, 30 mg/kg/day s.c., 12 weeks.
[14] abbreviates: high fat diet, 30 mg/kg/day s.c., 12 weeks, FIG. 7.
Setting [15] is: high fat diet, 30 mg/kg/day s.c., 12 weeks, study 1.
[16] abbreviates: high fat diet, 30 mg/kg/day s.c., Study 2.

ERα ligand binding domain, sequence (P03372 whole entry, looked up, species assumed, the tested form may be a part): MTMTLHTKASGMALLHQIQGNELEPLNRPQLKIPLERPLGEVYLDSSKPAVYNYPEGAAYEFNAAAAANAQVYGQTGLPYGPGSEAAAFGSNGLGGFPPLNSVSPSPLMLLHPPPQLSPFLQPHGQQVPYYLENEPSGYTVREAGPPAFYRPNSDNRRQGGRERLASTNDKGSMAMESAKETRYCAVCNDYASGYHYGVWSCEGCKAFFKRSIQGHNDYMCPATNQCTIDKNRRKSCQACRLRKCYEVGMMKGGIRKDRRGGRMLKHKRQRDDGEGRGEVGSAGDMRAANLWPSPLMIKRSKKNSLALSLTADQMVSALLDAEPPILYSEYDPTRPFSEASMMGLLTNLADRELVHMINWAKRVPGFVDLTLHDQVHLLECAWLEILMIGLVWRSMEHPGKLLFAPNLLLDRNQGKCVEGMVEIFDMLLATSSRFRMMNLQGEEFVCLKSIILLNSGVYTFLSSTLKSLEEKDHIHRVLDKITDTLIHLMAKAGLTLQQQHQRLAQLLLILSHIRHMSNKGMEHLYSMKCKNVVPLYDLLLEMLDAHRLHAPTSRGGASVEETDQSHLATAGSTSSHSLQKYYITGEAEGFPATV
ERβ ligand binding domain, sequence (Q92731 264-498, species assumed): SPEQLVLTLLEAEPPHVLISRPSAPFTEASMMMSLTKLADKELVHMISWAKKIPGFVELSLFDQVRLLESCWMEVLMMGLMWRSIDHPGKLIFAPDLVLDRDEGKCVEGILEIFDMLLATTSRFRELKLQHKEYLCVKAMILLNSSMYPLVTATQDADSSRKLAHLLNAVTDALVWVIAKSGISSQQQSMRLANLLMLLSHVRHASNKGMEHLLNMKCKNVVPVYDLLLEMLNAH

For the molecule `O=c1c2c(O)cc(O)cc2c(Cl)cn1-c1ccc(O)cc1` [Compound 12y, 4-chloro-6,8-dihydroxy-2-(4-hydroxyphenyl)isoquinolin-1(2H)-one], the “prevention of ROS formation / oxidative damage” value in the data set on ARPE-19 cells is given as “protected ARPE-19 cells from oxidative damage”. The molecule further displayed an inhibition constant (Ki) in data set [1] of 36 nM. The “Ki Ratio (ER-α/ER-β)” value in data set [2] came out at 11. Besides, the “adhesion of 3H labeled THP-1 cells to bEND-3 cells” value in [3] is “significantly inhibited the adhesion”.
Regarding `N#Cc1cn(-c2ccc(O)cc2)c(=O)c2c(O)cc(O)cc12` [Compound 14m, 6,8-dihydroxy-2-(4-hydroxyphenyl)-1-oxo-1,2-dihydroisoquinoline-4-carbonitrile], the “function at ER-α in transactivation” value at ER-α [4] is on record as “agonists”. For the same molecule, in [5] (30 mg/kg/day s.c., 12 weeks, Study 2), the “prevention of body weight increase caused by the high fat diet” value is recorded as “more than 50%”. The “high fat diet increase in expression of genes that promote lipogenesis (LPL, FASN, SREBP-1, PLTP, Dhcr24)” value in [5] (BAT and WAT) is recorded as “reversed”. In addition, in data set [5] (setting [10]), the “Ddit3 (DNA damage inducible transcript III) gene expression” value is given as “Decrease”, the “Dhcr24 (dehydrocholesterol reductase) gene expression” value is listed as “Decreased”, the “ER-β (Estrogen receptor β) gene expression” value is on record as “Increased” and the “GPx-3 (glutathione peroxidase) gene expression” value is “Increase”. In data set [5] (setting [10]), the “LPL (lipoprotein lipase) gene expression” value is on record as “Decrease”, the “PLTP (phospholipid transfer protein) gene expression” value was “Decrease” and the “UCP-1 (uncoupled protein-1) gene expression” value is “Increased”. Moreover, in data set [5] (setting [11]), the “CIDEA (Cell death inducing DNA fragmentation factor) gene expression” value is on record as “Decrease” and the “GPx-3 (glutathione peroxidase) gene expression” value is “Increase”. For the same molecule, in data set [5] (setting [12]), the “Ddit3 (DNA damage inducible transcript III) gene expression” value is “Decrease”, the “FASN (fatty acid synthase) gene expression” value was “Decrease”, the “LPL (lipoprotein lipase) gene expression” value is on record as “Decrease” and the “SREBP1 (Sterol regulatory element binding protein 1) gene expression” value is reported as “Decrease”. In [5] (setting [13]), the “bone mineral content (BMC), DEXA” value is “prevented the loss in BMC”; the “serum cholesterol increase by high fat diet” value is on record as “significantly reversed”; the “serum leptin increase by high fat diet” value is “significantly reversed”. For the same molecule, the “white adipose tissue (WAT) weight” value in data set [5] (high fat diet, 30 mg/kg/day s.c., 12 weeks, FIG. 6B) is given as “significantly reduced”. In data set [5] (setting [14]), the gastrocnemius muscle weight result is “increased gastrocnemius muscle weight” and the “white adipose tissue (WAT) weight” value was “prevented the increase in the WAT weight; also recorded: comparably decreased WAT weight”. In addition, in data set [5] (setting [15]), the “body fat (DEXA)” value is given as “suppressing fat mass formation”; the “reduction in body weight compared to high fat diet and vehicle” value was “greater than 85%”; the “weight gained more than normal diet-fed controls” value stood at 5%. Further, the “serum macrophage inflammatory protein-1β (MIP-1β) increase by high fat diet” value in data set [5] (high fat diet, 30 mg/kg/day s.c., FIG. 6F) is “completely reversed”. Moreover, the “accumulation of fat in the liver (oil red staining)” value in [5] (high fat diet, 30 mg/kg/day s.c., FIG. 8) is listed as “attenuated the accumulation of lipid droplets in the liver; also recorded: completely prevented the accumulation of fat in the liver”. Besides, in data set [5] (setting [16]), the “fat mass (MRI)” value is “reduce fat mass”, the “lean mass (MRI)” value is “increase muscle mass; also recorded: increased the lean mass” and the “prevention of the increase in body fat (MRI)” value is “more than 50%”. For the same molecule, the “total caloric intake (feed consumption)” value in data set [5] (high fat diet, 30 mg/kg/day s.c., study 1) is on record as “did not affect total caloric intake”. Further, the “blood glucose levels, glucose tolerance test” value in data set [5] (high fat diet, 30 mg/kg/day s.c., 150 mg glucose orally) is given as “not statistically different from the normal diet controls”. In data set [5] (high fat diet, 12 weeks, FIG. 9A), the testes weights entry is recorded as “not altered”. Also, in [5] (high fat diet, 12 weeks, FIG. 9B), the serum testosterone levels result is on record as “did not affect; also recorded: not altered”. Besides, the “serum follicle stimulating hormone (FSH)” value in data set [5] (high fat diet, 12 weeks, FIG. 9C) is “did not affect; also recorded: not altered”. The SHP activity result in the data set with SHP promoter [6] is recorded as “neither of the ligands activated SHP”. Besides, the “troglitazone-induced PPAR-γ activity” value in the data set with PPAR-γ is on record as “partially inhibited”. Moreover, the Ishikawa cell proliferation result in data set [7] (FIG. 3C) is “weakly induce”. The “concentration at which proliferation of Ishikawa cells was induced” value in [7] (highest concentration tested, ALP assay, 72 hrs) was determined as 1 µM. Further, the “WY14643 induced PPAR-α transactivation” value with PPAR-α is listed as “did not affect”. Further, the “Estradiol activity at 100 nM, ER-α” value at ER-α [8] was determined as 49%.
For the molecule `CCCc1c(-c2ccc(O)cc2)nn(-c2ccc(O)cc2)c1-c1ccc(O)cc1` [PPT, 1,3,5-tris(4-hydroxyphenyl)-4-propyl-1H-pyrazole], the SHP activity result in the data set with SHP promoter [9] is reported as “increased SHP activity”.
